From US5973204A (priority 1997, dated 1999)

Assays:
glycine receptors = target: T1, glycine receptors (Rattus norvegicus, UniProt P07727); experiment: binding tests, affinity to glycine receptors (% displacement)
T1 construct: from tissue; host or cells: rat spinal cord / brainstem synaptic membranes (inferred from the cited method)
From the text: The compounds of the invention have shown in binding tests a higher affinity to glycine receptors (Table I) than a structurally similar compound, i.e. thiocolchicoside.
The interaction of the compositions of the invention with their receptors has been evaluated according to the procedure by A. B. Young and S. H. Snyder reported in Proc. Natl. Acad. Sci U.S.A. 71, 4002, 1974.

[1] = test system: polysynaptic reflexes induced by strychnine; experiment: inhibition of the polysynaptic reflexes induced by strychnine in rabbits; format: in vivo, rabbit; details: for reduction of polysynaptic reflexes / removal of the potentiation of strychnine-induced reflexes: rabbits, 1 mg/kg intramuscularly
From the text: The inhibition of the polysynaptic reflexes induced by strychnine in rabbits has been studied for the in vivo tests.

[2] = acute toxicity (DL50) in the mouse; details: in vivo, iv
Description: The DL50 of the compounds I-III is, in fact, higher than 30 mg/kg i.v. in the mouse, the DL50 of thiocolchicoside being 7.5 mg/kg.

T1 sequence (P07727 29-457): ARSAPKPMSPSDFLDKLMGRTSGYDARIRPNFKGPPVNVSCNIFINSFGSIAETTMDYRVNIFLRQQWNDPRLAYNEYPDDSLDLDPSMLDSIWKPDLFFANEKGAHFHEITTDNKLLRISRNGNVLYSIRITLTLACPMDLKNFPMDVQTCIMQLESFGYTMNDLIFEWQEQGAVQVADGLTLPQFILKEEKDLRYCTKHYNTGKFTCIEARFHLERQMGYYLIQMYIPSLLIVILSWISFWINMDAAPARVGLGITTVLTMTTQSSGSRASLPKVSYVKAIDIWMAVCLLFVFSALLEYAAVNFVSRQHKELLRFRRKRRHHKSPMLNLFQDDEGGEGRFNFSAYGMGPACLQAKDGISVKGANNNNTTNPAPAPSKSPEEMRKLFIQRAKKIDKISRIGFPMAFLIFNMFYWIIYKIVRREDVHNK
T1 sequence (P20781 23-496 partner): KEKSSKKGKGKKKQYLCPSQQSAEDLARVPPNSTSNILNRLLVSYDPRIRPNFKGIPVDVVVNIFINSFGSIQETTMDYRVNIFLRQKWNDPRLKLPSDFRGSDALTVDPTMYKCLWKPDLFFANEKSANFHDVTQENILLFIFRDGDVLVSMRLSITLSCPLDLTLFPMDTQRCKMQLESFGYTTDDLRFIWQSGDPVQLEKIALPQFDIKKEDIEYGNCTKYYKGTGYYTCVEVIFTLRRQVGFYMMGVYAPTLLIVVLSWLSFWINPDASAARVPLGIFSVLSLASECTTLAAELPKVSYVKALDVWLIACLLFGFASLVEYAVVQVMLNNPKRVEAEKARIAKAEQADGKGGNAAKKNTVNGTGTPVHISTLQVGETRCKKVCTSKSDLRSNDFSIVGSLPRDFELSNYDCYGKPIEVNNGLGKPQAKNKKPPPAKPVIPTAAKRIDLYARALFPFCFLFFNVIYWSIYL

Structure (SMILES) | inhibition at 0.1 µM (glycine receptors) | inhibition at 1 µM (glycine receptors) | reduction of polysynaptic reflexes [1] | removal of the potentiation of strychnine-induced reflexes [1] | LD50 [2] | inhibition at 0.5 µM (glycine receptors; 0.5 μM) | minimal effective dose at 1 mg/kg ([1]; Oryctolagus cuniculus, read-out: minimum dose to obtain comparable effects)
COc1c(OCC2CO2)cc2c(c1OC)-c1ccc(SC)c(=O)cc1[C@@H](NC(C)=O)CC2 (some centres unmarked) [Compound I, 3-demethyl-3-glycidylthiocolchicine] | 40% | 85% | 50% | removing completely |  |  | 
COc1c(OCC(O)CO)cc2c(c1OC)-c1ccc(SC)c(=O)cc1[C@@H](NC(C)=O)CC2 (some centres unmarked) [Compound II, 3-demethyl-3-(2,3-dihydroxyrpropyl)thiocolchicine] | 35% | 65% | 60% | removing completely |  |  | 
COc1c(OCC(O)CN)cc2c(c1OC)-c1ccc(SC)c(=O)cc1[C@@H](NC(C)=O)CC2 (some centres unmarked) [Compound III, 3-demethyl-3-(3-amino-2-hydroxypropyl)thiocolchicine] | 50% | 75% | 65% | removing completely |  |  | 
COc1c(O[C@@H]2O[C@H](CO)[C@@H](O)[C@H](O)[C@H]2O)cc2c(c1OC)-c1ccc(SC)c(=O)cc1[C@@H](NC(C)=O)CC2 [thiocolchicoside, 3-demethyl-thiocolchicine glucoside, reference compound] | 20% | 70% |  |  | 7.5 mg/kg | 45% | ≥ 5 mg/kg
